In the NIST ThermoML archive (doi:10.1021/je2000952):

Settings: Liquid, Closed cell (Static) method

FCC(F)(F)F [1,1,1,2-tetrafluoroethane]
Settings | vapor or sublimation pressure [kPa]
283.13 K | 414.4
293.14 K | 571.1
303.12 K | 769.2
313.11 K | 1014.9
323.17 K | 1318.5
333.16 K | 1681.1
343.16 K | 2117.3

C=C(F)C(F)(F)F [2,3,3,3-tetrafluoro-1-propene]
Settings | vapor or sublimation pressure [kPa]
245.65 K | 110.3
248.15 K | 122.6
250.65 K | 136.1
253.15 K | 150.7
255.65 K | 166.4
258.15 K | 183.6
260.65 K | 201.9
263.15 K | 221.6
265.65 K | 242.5
268.15 K | 265.2
270.65 K | 289.7
273.15 K | 315.7
275.65 K | 343.3
278.15 K | 372.8
280.65 K | 404.1
283.15 K | 437.4
285.65 K | 472.9
288.15 K | 510.3
290.65 K | 549.9
293.16 K | 591.8
295.65 K | 636
298.16 K | 682.7
300.66 K | 731.9
303.16 K | 783.6
305.66 K | 838.1
308.16 K | 895.3
310.66 K | 955.5
313.16 K | 1018.5
315.66 K | 1084
318.16 K | 1153.4
320.66 K | 1225.8
323.16 K | 1301.6
325.65 K | 1381
328.15 K | 1463.9
330.66 K | 1550.6
333.16 K | 1641.1
335.66 K | 1735.7
338.16 K | 1833.9
340.66 K | 1936.6
343.15 K | 2043.7
